According to the OligoGym collection:
Several values for one entry are separate records, joined by “and”; a condition that tells them apart may be missing. Equal entries are not always repeated. After the bases stand the sugars from the 5' end (letter, count) and the backbone: PS all phosphorothioate, else s phosphorothioate and o phosphodiester by linkage. Methylation of C is not given here. [mop] = methoxypropylphosphonate linkage; e = 2'-O-(2-methoxyethyl) (MOE); k = constrained ethyl (cEt); d = 2'-deoxy (DNA); m = 2'-O-methyl

Key:
[1] = target: KRAS; settings: ASO
[2] = target: IRF5; settings: ASO

Sequence	target mRNA inhibition ([1]; A431, 2 µM)	target mRNA inhibition ([2]; KARPAS-229, 4 µM)	other results
AAAAAATTAATGTCTT (sugars k3 d10 k3, PS)	9%		
AAAACAAATGCTAATA (sugars k3 d10 k3, PS)	12%		
AAAATTAATGTCTTGG (sugars k3 d10 k3, PS)	12%		
AAATCTGAATTAGTCT (sugars k3 d10 k3, PS)	25%		
AAATGCTAATAATTTA (sugars k3 d10 k3, PS)	13%		
AAGATGGTGTAACATA (sugars k3 d10 k3, PS)	30%		
AATCTTATGGTTAGGG (sugars k3 d10 k3, PS)	45%		target mRNA inhibition ([1]; A431, 0.185 µM): 2%; target mRNA inhibition ([1]; A431, 0.556 µM): 2%; target mRNA inhibition ([1]; A431, 1.667 µM): 35%; target mRNA inhibition ([1]; A431, 5 µM): 52%
AATCTTTTAATGTCAC (sugars k3 d10 k3, PS)	44%		
AATGCTAATAATTTAG (sugars k3 d10 k3, PS)	0%		
AATTAGTGATTAGGTC (sugars k3 d10 k3, PS)	32%		
AATTGTGCAATGGTGA (sugars k3 d10 k3, PS)	46%		
ACCAGTGTTAAGAGAA (sugars k3 d9 k3 e1, PS)	44%		
ACCAGTGTTAAGAGAA (sugars k3 d10 k3, PS)	60%		target mRNA inhibition ([1]; A431, 0.185 µM): 5% and 3%; target mRNA inhibition ([1]; A431, 0.556 µM): 39% and 19%; target mRNA inhibition ([1]; A431, 1.667 µM): 59% and 43%; target mRNA inhibition ([1]; A431, 5 µM): 72% and 60%
ACCAGTGTTAAGAGAA (sugars kddddddddddkekek, PS)	44%		
ACCAGTGTTAAGAGAA (sugars kkddddddddddkeke, PS)	42%		
ACCAGTGTTAAGAGAA (sugars kkdddddddddkekek, PS)	49%		
ACCATTCAAAGTTCAC (sugars kddddddddddkekek, PS)	18%		
ACCATTCAAAGTTCAC (sugars kkkdddddddddkeke, PS)	30%		
ACTCTCTATGAAAGCT (sugars k3 d10 k3, PS)	29%		
ACTTTTTGACAAATGG (sugars k3 d10 k3, PS)	46%		
AGATTGTGCTGAGCTT (sugars kkkddddddddkdkdk, PS)	42%		

Sequence	target mRNA inhibition ([1]; A431, 2 µM)	target mRNA inhibition ([2]; KARPAS-229, 4 µM)	other results
AGGAGTCTTTATAGTA (sugars kddddddddddkekek, PS)	31%		
AGGAGTCTTTATAGTA (sugars kkddddddddddkeke, PS)	40%		
AGGAGTCTTTATAGTA (sugars kkkddddddddkdkdk, PS)	30%		
AGGAGTCTTTATAGTA (sugars kkkddddddddkekek, PS)	22%		
AGTATTAACACAGAAG (sugars k3 d10 k3, PS)	27%		
AGTGATTAGGTCAAAT (sugars k3 d10 k3, PS)	23%		
AGTGTGACTCAGTTAA (sugars kkkddddddddkekek, PS)	29%		
AGTGTTTATGCAATGT (sugars k3 d10 k3, PS)	69% and 50%		target mRNA inhibition ([1]; A431, 0.185 µM): 27% and 9%; target mRNA inhibition ([1]; A431, 0.556 µM): 46% and 21%; target mRNA inhibition ([1]; A431, 1.667 µM): 65% and 46%; target mRNA inhibition ([1]; A431, 5 µM): 83% and 67%
ATAGTTTCCATTGCCT (sugars k3 d10 k3, PS)	50% and 65%		target mRNA inhibition ([1]; A431, 1.667 µM): 64% and 45%; target mRNA inhibition ([1]; A431, 5 µM): 75% and 70%
ATCAACTGCATGCACC (sugars k3 d10 k3, PS)	42%		
ATGCAATGTTAATTTA (sugars k3 d10 k3, PS)	9%		
ATGCTGTGAAACTCTC (sugars k3 d9 k3 e1, PS)	37%		
ATGCTGTGAAACTCTC (sugars kdddddddddkekeke, PS)	24%		
ATTAATCCATTTATGT (sugars k3 d10 k3, PS)	3%		
ATTACTTATGCAGAGA (sugars k3 d10 k3, PS)	60%		
ATTGTGCTGAGCTTGA (sugars kddddddddddkekek, PS)	34%		
ATTGTGCTGAGCTTGA (sugars kkddddddddkekekk, PS)	31%		
TGAGTCATGGGCTGAG (sugars kddddddddkekekdd, PS)		0%	
TGAGTCATGGGCTGAG (sugars kekdddddddddeekk, PS)		12%	
TGAGTCATGGGCTGAG (sugars kkkddddddddkekek, PS)		0%	
TGAGTCTCAAACCAGG (sugars kkdddddddddkekek, PS)		0%	

Sequence	target mRNA inhibition ([1]; A431, 2 µM)	target mRNA inhibition ([2]; KARPAS-229, 4 µM)	other results
TGAGTCTCAAACCAGG (sugars kkdddkddddkekekk, PS)		0%	
TGAGTCTCAAACCAGG (sugars kkkddddddddkekek, PS)		0%	
TGCACTGACACAGGCG (sugars kkkddddddddkekek, PS)		0%	
TGCAGGGAGTCAGACC (sugars k3 d10 k3, PS)		0%	
TGCCTTCTGCAGGGAG (sugars k3 d10 k3, PS)		0%	
TGTCACATCTCCACAT (sugars kddddddddddkekek, PS)		16%	
TGTCACATCTCCACAT (sugars kkddddddddkekekk, PS)		0%	
TGTCTAGTGTCATGGA (sugars k2 d9 e3 k2, PS)		60% and 57%	target mRNA inhibition ([2]; A-431, 0.00412 µM): 0% and 4%; target mRNA inhibition ([2]; A-431, 0.01225 µM): 0% and 2%; target mRNA inhibition ([2]; A-431, 0.03704 µM): 24% and 28%; target mRNA inhibition ([2]; A-431, 0.11111 µM): 44%; target mRNA inhibition ([2]; A-431, 0.33333 µM): 59% and 60%; target mRNA inhibition ([2]; A-431, 1 µM): 69% and 74%; target mRNA inhibition ([2]; KARPAS-229, 0.44444 µM): 33%; target mRNA inhibition ([2]; KARPAS-229, 1.33333 µM): 50%; target mRNA inhibition ([2]; KARPAS-229, 12 µM): 70%
TGTCTAGTGTCATGGA (sugars k2 d9 e3 k2, linkages s4 [mop]1 s10)			target mRNA inhibition ([2]; A-431, 0.00412 µM): 2%; target mRNA inhibition ([2]; A-431, 0.01225 µM): 11%; target mRNA inhibition ([2]; A-431, 0.03704 µM): 4%; target mRNA inhibition ([2]; A-431, 0.11111 µM): 8%; target mRNA inhibition ([2]; A-431, 0.33333 µM): 18%; target mRNA inhibition ([2]; A-431, 1 µM): 32%
TGTCTAGTGTCATGGA (sugars k3 d10 k3, PS)		61% and 65%	target mRNA inhibition ([2]; KARPAS-229, 0.44444 µM): 0%; target mRNA inhibition ([2]; KARPAS-229, 1.33333 µM): 42%; target mRNA inhibition ([2]; KARPAS-229, 12 µM): 74%
TGTCTAGTGTCATGGA (sugars kkdddddddddkekek, PS)		44%	
TGTCTAGTGTCATGGA (sugars kkdmdddddddeeekk, PS)			target mRNA inhibition ([2]; A-431, 0.00412 µM): 0%; target mRNA inhibition ([2]; A-431, 0.01225 µM): 11%; target mRNA inhibition ([2]; A-431, 0.03704 µM): 5%; target mRNA inhibition ([2]; A-431, 0.11111 µM): 15%; target mRNA inhibition ([2]; A-431, 0.33333 µM): 25%; target mRNA inhibition ([2]; A-431, 1 µM): 33%
TTATCTCCGTCCTGGC (sugars k2 d8 e4 k2, PS)		0%	
TTATCTCCGTCCTGGC (sugars k2 d9 e3 k2, PS)		5%	
TTATCTCCGTCCTGGC (sugars kkdddddddddkdkdk, PS)		14%	
TTATTTCTGCTCCAGG (sugars kdddddddddkekeke, PS)		0%	
TTATTTCTGCTCCAGG (sugars kekdddddddddeekk, PS)		56% and 80%	target mRNA inhibition ([2]; KARPAS-229, 0.44444 µM): 53%; target mRNA inhibition ([2]; KARPAS-229, 1.33333 µM): 69%; target mRNA inhibition ([2]; KARPAS-229, 12 µM): 86%
TTCTGCAGGGAGTCAG (sugars kkddddddddkekekk, PS)		0%	
TTGTCTAGTGTCATGG (sugars kkddddddddkekekk, PS)		0%	
TTGTCTAGTGTCATGG (sugars kkkddddddddkekek, PS)		16%	
TTTTGTGACTGTATTA (sugars k3 d10 k3, PS)		2%	
